The target in experiment [1] is T1, Insulin-degrading enzyme (Homo sapiens, UniProt P14735).
T1 sequence (P14735 whole entry): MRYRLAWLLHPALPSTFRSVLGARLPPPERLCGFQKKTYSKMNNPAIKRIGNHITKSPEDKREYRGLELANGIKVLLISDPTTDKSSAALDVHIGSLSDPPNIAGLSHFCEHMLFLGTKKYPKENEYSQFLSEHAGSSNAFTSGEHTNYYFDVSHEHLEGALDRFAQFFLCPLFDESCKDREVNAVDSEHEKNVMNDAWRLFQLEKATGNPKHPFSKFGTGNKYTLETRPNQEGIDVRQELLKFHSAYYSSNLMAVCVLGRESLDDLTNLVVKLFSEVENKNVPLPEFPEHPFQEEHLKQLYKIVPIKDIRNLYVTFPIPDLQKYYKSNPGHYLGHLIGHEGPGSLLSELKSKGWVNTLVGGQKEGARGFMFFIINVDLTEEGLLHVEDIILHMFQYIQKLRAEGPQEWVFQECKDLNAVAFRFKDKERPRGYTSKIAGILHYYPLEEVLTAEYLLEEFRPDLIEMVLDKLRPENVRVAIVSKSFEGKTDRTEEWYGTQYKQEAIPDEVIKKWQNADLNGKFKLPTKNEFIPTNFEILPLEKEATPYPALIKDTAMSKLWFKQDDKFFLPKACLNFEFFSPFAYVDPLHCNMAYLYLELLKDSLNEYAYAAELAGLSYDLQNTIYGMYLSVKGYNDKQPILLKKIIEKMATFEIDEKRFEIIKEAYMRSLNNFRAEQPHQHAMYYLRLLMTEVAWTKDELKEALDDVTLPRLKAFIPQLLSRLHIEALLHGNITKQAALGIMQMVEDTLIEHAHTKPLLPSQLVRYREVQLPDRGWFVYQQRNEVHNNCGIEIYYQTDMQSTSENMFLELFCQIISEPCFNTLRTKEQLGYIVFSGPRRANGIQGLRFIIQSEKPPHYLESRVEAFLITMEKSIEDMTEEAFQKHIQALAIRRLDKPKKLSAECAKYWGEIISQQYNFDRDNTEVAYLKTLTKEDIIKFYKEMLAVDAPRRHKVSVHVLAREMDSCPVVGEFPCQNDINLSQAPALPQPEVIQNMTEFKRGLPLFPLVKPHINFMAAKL
Kind of experiment: activators of recombinant IDE enzyme, dose response, counter-screen for IDE activator project, biochemical, fluorescence polarization (AID 588681). For orientation: A counterscreen serves to expose hits that act by an unwanted route or on another target.

In experiment [2] the test system is HEK293. Kind of experiment: optical interference in Abeta FP readout, dose response, artefact control for IDE activator project, biochemical, fluorescence polarization (AID 588442). The experiment is classed as functional, cell-based. The conditions noted are these: Homo sapiens. A general note: Fluorescence polarisation rises when a labelled molecule tumbles more slowly, as on binding a larger partner.

Experiment [3] deals with T1, Insulin-degrading enzyme. Kind of experiment: activators of endogenous IDE in HEK cells, dose response, cell-based, fluorescence polarization (AID 588439). The experiment is classed as functional.
The subject of experiment [4] is HEK293. Kind of experiment: HEK cell cytotoxicity by LDH release, dose response, cytotoxicity control for IDE activator project, fluorescence, HEK cells (AID 588440).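 Note: cytotoxicity by LDH release measuring loss of membrane integrity.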 The experiment is classed as functional, cell-based. The conditions noted are these: Homo sapiens.
The target in the next experiment is T2, Estrogen receptor (Homo sapiens, UniProt P03372).
T2 sequence (P03372 whole entry): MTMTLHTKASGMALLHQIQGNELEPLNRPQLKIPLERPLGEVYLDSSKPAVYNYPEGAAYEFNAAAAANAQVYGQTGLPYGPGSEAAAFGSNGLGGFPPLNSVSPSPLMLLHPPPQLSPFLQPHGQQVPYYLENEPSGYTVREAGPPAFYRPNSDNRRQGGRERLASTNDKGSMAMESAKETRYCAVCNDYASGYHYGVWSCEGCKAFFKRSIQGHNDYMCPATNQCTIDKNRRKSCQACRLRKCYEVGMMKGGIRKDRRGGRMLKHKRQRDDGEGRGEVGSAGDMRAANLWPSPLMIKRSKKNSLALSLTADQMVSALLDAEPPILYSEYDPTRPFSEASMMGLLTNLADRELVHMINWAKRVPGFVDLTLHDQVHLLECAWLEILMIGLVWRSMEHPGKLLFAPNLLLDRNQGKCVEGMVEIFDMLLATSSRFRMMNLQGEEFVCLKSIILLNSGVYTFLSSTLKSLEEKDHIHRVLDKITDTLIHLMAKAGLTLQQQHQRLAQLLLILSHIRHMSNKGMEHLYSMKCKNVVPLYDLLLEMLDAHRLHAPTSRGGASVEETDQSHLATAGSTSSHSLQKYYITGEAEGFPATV

Another experiment concerns Vero. Kind of experiment: Vero cell cytotoxicity, cytotoxicity control for flavivirus capping enzyme inhibitors (AID 588742). The experiment is classed as functional. The conditions noted are these: Chlorocebus sabaeus.
Another experiment addresses Estrogen receptor beta (Homo sapiens, UniProt Q92731).
The target in experiment [5] is T3, Sentrin-specific protease 8 (Homo sapiens, UniProt Q96LD8).
T3 sequence (Q96LD8 whole entry): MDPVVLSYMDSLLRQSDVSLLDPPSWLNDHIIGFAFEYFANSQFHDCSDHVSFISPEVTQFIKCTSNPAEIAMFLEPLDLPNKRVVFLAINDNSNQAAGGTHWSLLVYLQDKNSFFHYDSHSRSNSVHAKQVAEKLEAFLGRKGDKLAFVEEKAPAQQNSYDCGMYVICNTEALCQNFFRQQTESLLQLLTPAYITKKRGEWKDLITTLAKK
Kind of experiment: SENP8 protease inhibitors, SAR follow-up, biochemical, luminescence (AID 504501). The experiment is classed as functional.

Experiment [6] concerns the target T4, Sentrin-specific protease 6 (Homo sapiens, UniProt Q9GZR1).
T4 sequence (Q9GZR1 whole entry): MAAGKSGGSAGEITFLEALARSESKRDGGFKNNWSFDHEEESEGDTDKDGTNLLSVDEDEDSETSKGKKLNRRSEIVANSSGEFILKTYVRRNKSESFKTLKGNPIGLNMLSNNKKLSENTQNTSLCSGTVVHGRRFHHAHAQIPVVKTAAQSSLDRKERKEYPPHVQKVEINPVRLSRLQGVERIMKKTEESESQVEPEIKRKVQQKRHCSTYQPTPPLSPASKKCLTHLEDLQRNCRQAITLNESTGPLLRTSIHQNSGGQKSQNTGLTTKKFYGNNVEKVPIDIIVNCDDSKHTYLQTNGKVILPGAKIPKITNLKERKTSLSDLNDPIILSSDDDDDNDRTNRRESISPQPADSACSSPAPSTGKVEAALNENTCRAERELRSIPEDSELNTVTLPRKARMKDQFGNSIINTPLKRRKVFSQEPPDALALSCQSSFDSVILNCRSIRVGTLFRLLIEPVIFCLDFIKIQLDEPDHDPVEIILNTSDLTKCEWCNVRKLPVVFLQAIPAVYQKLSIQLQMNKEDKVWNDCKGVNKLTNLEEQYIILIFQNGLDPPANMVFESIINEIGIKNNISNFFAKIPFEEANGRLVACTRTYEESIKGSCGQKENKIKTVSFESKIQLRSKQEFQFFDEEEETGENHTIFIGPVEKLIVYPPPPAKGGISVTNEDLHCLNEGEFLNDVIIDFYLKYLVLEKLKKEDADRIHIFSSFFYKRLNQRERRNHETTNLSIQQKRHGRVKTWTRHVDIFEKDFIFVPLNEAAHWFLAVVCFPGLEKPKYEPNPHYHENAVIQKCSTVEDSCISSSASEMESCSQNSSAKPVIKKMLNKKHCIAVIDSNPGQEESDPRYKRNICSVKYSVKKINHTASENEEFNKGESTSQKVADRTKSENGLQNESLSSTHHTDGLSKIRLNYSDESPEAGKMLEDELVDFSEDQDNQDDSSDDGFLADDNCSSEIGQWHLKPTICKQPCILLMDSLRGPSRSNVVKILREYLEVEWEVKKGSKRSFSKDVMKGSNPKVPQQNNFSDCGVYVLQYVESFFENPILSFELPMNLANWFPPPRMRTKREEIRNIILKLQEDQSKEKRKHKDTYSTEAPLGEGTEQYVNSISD
Kind of experiment: SAR Analysis of small molecule inhibitors of Sentrin-specific protease 6 (SENP6) using a Luminescent assay. [Related pubchem assays (depositor defined):AID2582, AID2599]. Type of experiment: functional.

The target in another experiment is T5, Caspase-3 (Homo sapiens, UniProt P42574).
T5 sequence (P42574 whole entry): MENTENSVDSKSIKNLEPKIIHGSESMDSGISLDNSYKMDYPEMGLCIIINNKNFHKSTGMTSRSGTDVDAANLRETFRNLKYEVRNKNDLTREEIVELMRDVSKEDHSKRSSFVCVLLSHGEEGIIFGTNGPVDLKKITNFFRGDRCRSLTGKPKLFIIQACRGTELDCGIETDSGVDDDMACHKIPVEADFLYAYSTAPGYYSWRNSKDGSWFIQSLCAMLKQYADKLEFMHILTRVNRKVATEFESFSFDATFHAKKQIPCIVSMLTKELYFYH
Kind of experiment: SAR Analysis of small molecule inhibitors of Sentrin-specific proteases (SENPs) using a Caspase-3 Selectivity assay. [Related pubchem assays (depositor defined):AID2540, AID2599, AID434973, AID489001]. The experiment is classed as functional.

The target in experiment [7] is T6, Sentrin-specific protease 7 (Homo sapiens, UniProt Q9BQF6).
T6 sequence (Q9BQF6 whole entry): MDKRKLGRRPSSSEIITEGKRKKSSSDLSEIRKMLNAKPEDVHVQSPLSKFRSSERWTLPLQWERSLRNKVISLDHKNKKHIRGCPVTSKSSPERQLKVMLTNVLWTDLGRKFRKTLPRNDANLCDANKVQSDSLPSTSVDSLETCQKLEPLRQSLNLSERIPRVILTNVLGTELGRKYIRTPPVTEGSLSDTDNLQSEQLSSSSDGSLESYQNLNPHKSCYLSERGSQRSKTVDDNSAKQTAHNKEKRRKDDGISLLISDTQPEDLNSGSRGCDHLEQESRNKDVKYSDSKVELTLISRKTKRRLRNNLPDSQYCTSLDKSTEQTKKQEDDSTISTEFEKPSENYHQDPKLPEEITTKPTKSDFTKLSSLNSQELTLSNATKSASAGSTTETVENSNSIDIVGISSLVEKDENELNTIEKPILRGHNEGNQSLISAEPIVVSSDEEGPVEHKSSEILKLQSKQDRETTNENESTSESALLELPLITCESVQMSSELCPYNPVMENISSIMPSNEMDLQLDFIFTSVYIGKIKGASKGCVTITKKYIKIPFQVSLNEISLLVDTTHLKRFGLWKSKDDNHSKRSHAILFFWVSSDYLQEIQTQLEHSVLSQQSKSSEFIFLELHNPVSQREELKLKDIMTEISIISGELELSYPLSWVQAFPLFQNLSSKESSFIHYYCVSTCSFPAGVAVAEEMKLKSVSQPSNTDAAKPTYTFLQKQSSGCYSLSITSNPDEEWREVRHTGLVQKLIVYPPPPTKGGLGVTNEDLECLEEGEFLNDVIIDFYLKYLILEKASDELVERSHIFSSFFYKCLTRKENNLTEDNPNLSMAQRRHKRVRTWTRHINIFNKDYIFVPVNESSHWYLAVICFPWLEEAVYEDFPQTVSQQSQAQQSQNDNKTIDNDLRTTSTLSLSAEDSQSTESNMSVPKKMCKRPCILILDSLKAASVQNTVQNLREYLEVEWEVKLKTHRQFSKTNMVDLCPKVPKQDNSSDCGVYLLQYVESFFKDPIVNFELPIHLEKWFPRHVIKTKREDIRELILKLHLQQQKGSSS
Kind of experiment: SENP7 protease inhibitors, SAR follow-up, biochemical, luminescence (AID 504497). Type of experiment: functional.

Experiment [8] has as its target Hepatocyte nuclear factor 4-alpha (Homo sapiens, UniProt P41235). The experiment is classed as functional, cell-based.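 Note: biochemical luminescence-based dose-response counterscreen measuring inhibition of HNF4 dimerization, run alongside a screen for blockers of ABHD5–perilipin-5 interaction; split luciferase complementation of HNF4 fusion proteins in cell lysate measuring dimerization.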

This note sets out measurements from ChEMBL document CHEMBL1201862, “PubChem BioAssay data set” (2004).

Activity calls are given as the source filed them.

Chain of Estrogen receptor beta (Q92731 whole entry): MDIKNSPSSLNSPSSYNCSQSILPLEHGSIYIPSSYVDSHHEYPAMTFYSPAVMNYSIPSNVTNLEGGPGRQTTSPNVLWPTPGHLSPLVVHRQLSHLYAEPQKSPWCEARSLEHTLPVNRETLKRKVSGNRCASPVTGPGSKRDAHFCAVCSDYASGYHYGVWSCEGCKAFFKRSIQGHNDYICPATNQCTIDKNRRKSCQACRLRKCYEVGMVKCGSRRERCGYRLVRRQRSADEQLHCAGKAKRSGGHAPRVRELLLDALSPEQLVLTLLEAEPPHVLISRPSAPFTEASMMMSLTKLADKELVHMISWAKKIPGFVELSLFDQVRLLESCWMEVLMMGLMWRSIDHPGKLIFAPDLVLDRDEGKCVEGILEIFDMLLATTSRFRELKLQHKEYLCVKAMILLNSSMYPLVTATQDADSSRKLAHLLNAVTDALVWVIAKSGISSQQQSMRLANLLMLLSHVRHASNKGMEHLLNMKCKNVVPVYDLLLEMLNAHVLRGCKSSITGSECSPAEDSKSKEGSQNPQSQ
Chain of Hepatocyte nuclear factor 4-alpha (P41235 whole entry, the tested form may be a part): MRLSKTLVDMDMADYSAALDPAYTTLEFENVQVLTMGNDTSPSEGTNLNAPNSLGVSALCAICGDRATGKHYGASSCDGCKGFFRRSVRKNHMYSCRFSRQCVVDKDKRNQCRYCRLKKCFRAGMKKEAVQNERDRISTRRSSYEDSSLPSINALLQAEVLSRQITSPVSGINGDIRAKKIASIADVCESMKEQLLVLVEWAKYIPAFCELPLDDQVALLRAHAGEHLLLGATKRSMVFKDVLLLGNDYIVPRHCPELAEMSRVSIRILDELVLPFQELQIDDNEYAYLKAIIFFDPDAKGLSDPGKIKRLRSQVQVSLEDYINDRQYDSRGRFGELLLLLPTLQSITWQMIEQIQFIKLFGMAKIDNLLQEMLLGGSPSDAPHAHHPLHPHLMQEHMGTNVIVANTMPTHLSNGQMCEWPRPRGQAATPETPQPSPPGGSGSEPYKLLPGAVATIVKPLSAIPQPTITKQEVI

`O=C(c1cnn(C(=O)c2ccco2)c1)c1cc(F)ccc1O`: the EC50 on Insulin-degrading enzyme [1], in the experiment with HEK293 [2] and at Insulin-degrading enzyme [3] was > 54.7 µM (inactive) each time. Further, the IC50 in the experiment on HEK293 [4] is > 89.1 µM (inactive).
Turning to `CC(OC(=O)c1ccc(Cl)nc1)C(=O)NC1(C#N)CCCCC1` (centres undefined), the EC50 on Insulin-degrading enzyme [1], with HEK293 [2] and at Insulin-degrading enzyme [3] was > 54.7 µM (inactive) in each case. The IC50 in the experiment on HEK293 [4] is > 89.3 µM (inactive).
On to `O=C(Nc1ccc(N2CCCC2)cc1)C(Cl)c1ccccc1` (centres undefined), for which the IC50 on Estrogen receptor and on Estrogen receptor beta was > 50 µM (not active) throughout. Further, in the experiment with Vero, the CC50 is > 40 µM (active).
Turning to `Cc1ccsc1C(=O)Nc1nc2ccc(Cl)cc2s1`, the IC50 in experiment [5] is 0.62 µM (active); in [6], 0.66 µM (active); on Caspase-3, 0.48 µM (active); in experiment [7], 0.75 µM (active).
For `COc1ccc(C2C(C#N)=C(N)Oc3c2c(C)nn3-c2ccccc2)cc1` (centres undefined), the IC50 was > 99 µM (inactive) in experiment [5], 32.4 µM (active) in experiment [6], > 99 µM (inactive) on Caspase-3 and 63 µM (active) in experiment [7].
Turning to `C(=C\c1nc(-c2ccc(N3CCOCC3)cc2)no1)/c1ccccc1`, the IC50 (in experiment [5]; in experiment [6]; on Caspase-3; in experiment [7]) was > 99 µM (inactive) throughout.
Consider `O=C1CC(c2ccc(Cl)cc2)Oc2ccc(Cl)cc21` (centres undefined), for which the IC50 in experiment [8] was 6.14 µM (active).

For orientation: EC50 means the concentration at which the effect is half-maximal. As usually defined, the IC50 is the midpoint of a concentration-inhibition curve. Broadly, the CC50 is the concentration that lowers cell viability or growth by half.
